Experimental data reported in patent publication US20260176270A1 (Exelixis, Inc., priority 2022, published 2026).
Like-named read-outs stand apart in the source and are kept apart here.

Columns and labels:
PKMYT1 = target: T1, PKMYT1 (Homo sapiens, UniProt Q99640); assay: ADP-Glo PKMYT1 ATP-depletion assay; conditions: 50 nM PKMYT1, 13.3 nM CDK1, read-out: Biochemical IC50
T1 construct: PKMYT1 (93 kD, full length, N-terminal GST tag from Signal Chem); GST (N); purchased Signal Chem
T1 sequence (Q99640 1-499): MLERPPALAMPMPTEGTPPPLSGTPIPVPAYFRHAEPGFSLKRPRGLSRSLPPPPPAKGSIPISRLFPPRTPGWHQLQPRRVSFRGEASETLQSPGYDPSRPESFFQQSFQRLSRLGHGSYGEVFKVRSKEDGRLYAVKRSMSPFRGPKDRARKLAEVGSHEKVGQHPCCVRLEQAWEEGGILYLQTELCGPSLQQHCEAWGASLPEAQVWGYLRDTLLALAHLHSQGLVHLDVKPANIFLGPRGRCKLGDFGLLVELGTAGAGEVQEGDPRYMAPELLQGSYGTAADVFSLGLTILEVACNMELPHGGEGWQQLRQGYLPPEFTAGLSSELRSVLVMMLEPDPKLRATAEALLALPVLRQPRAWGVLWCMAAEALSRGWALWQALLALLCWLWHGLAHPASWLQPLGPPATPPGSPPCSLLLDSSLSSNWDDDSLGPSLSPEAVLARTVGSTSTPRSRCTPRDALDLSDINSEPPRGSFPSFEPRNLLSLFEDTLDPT
Method: (§1) Biochemical IC50 values were determined via ADP-Glo™ assay. Cellular IC50 values were determined via AlphaLISA assay.
ADP-Glo™ PKMYT1 ATP-depletion assay. The activity of PKMYT1 is measured using a luciferase-luciferin based ATP detection reaction to quantify ATP depletion resulting from kinase-catalyzed phosphoryl transfer to CDK1 or autophosphorylation of PKMYT1. The ADP generated as a byproduct of the reaction is converted to ATP and used to drive a luciferase reaction. Test compounds were dissolved in DMSO and dispensed into Corning 3824 384-well plates prior to the experiment such that the final DMSO concentration was <1%. To the compounds was added 3 μL of PKMYT1 (93 kD, full length, N-terminal GST tag from Signal Chem). The reaction was started by the addition of 2 μL of CDK1 (58 kDa, full length, N-terminal GST tag from Signal Chem) and ATP in assay buffer (50 mM Hepes, 40 mM NaCl, 10 mM MgCl2, 1 mM DTT, 0.1 mg/mL BSA, 2.5 mM MnCl2). Final assay concentrations were 50 nM PKMYT1, 13.3 nM CDK1, and 88 µM ATP. Plates were centrifuged for 1 minute at 1000 RPM and incubated at RT for 120 minutes. After the incubation period, ADP-Glo™ reagent was added and the plates were incubated for another 40 minutes before finally adding the kinase detection reagent. 30 minutes after the addition, plates were placed on a PHERAstar® plate reader and read using the Luminescence Protocol, integration time at 0.5 seconds.

[1] = test system: phosphorylation of CDK1 at Thr14 in HCC1806 cells; assay: Cell lysate AlphaLISA assay measuring inhibition of phosphorylation of CDK1 Thr14; assay type: cell-based; conditions: read-out: Cellular IC50
Method: as §1
Cell lysate AlphaLISA® assay measuring inhibition of phosphorylation of CDK1 Thr14. Inhibition of phosphorylation of CDK1 at Thr14 was determined using AlphaLISA® SureFire® Ultra™ Kit from Perkin Elmer (ALSU-PCDK1-A10K). HCC1806 cells were seeded at 2K cells per well (50 μl/well) in 384-well plates (Corning 3570) and stored overnight at 37° C. and 5% CO2. The following day, the compounds dissolved in DMSO were introduced to the cells and incubated for 4 hours at 37° C. and 5% CO2. The cells were then washed with PBS using Blue®Washer and 10 μl of lysis buffer containing protease inhibitor was added. The plate was placed on an orbital shaker (at 4° C.) for 30 minutes and stored overnight at −80° C. for complete lysing. The next day, the plates were thawed at room temperature for at least 30 min. Reagents were prepared in a dimmed light setting (<100 lumens). The assay was run by first adding 5 μl of the acceptor mix (reaction buffer 1: reaction buffer 2: activation buffer: acceptor beads 47:47:4:2), covering the plate with foil, shaking for 2 minutes and incubating at RT for 60 minutes. The donor mix (dilution buffer: donor beads 47:3) was then added at 5 μl per well, placed on the shaker for 2 minutes and incubated at RT for 60 minutes before reading the plates on a PHERAstar® plate reader. The results were normalized to DMSO (0% Inhibition) and 3 μM of reference compound.

## NC(=O)c1nc2cccnc2c(-c2c(F)ccc3[nH]ncc23)c1N (atropisomer, axis not shown) [Compound 245]
PKMYT1
  IC50: ≥ 5000 nM
[1]; 4 hours
  IC50: ≥ 5000 nM

## NC(=O)c1cc2nccnc2c(-c2c(Cl)ccc3[nH]ncc23)c1N (atropisomer, axis not shown) [Compound 246]
PKMYT1
  IC50: 50 to 500 nM
[1]; 4 hours
  IC50: 500 to 1000 nM

## NC(=O)c1cc2nccnc2c(-c2c(Cl)ccc3[nH]ncc23)c1N (atropisomer, axis not shown) [Compound 247]
PKMYT1
  IC50: 1000 to 5000 nM
[1]; 4 hours
  IC50: ≥ 5000 nM

## Cc1c(O)cccc1-c1c(N)c(C(N)=O)cc2c1ncc(=O)n2C (atropisomer, axis not shown) [Compound 283]
PKMYT1
  IC50: 1000 to 5000 nM
[1]; 4 hours
  IC50: ≥ 5000 nM

## Cc1c(O)cccc1-c1c(N)c(C(N)=O)cc2c1ncc(=O)n2C (atropisomer, axis not shown) [Compound 284]
PKMYT1
  IC50: 50 to 500 nM
[1]; 4 hours
  IC50: ≥ 5000 nM

## Cc1cc(O)c(C)c(-c2c(N)c(C(N)=O)nc3cccnc23)c1 (atropisomer, axis not shown) [Compound 285]
PKMYT1
  IC50: ≥ 5000 nM
[1]; Homo sapiens, HCC1806, 4 h
  IC50: ≥ 5000 nM

## Cc1cc(O)c(C)c(-c2c(N)c(C(N)=O)nc3cccnc23)c1 (atropisomer, axis not shown) [Compound 286]
PKMYT1
  IC50: 500 to 1000 nM
[1]; 4 hours
  IC50: ≥ 5000 nM

## Cc1ccc(-c2c(N)c(C(N)=O)nc3cccnc23)c(C)c1O (atropisomer, axis not shown) [Compound 287]
PKMYT1
  IC50: ≥ 5000 nM
[1]; 4 hours
  IC50: ≥ 5000 nM

## Cc1ccc(-c2c(N)c(C(N)=O)nc3cccnc23)c(C)c1O (atropisomer, axis not shown) [Compound 288]
PKMYT1
  IC50: < 50 nM
[1]; 4 hours
  IC50: 50 to 500 nM

## Cc1c(O)cc(Cl)cc1-c1c(N)c(C(N)=O)nc2cccnc12 (atropisomer, axis not shown) [Compound 289]
PKMYT1
  IC50: 1000 to 5000 nM
[1]; 4 hours
  IC50: ≥ 5000 nM

## Cc1c(O)cc(Cl)cc1-c1c(N)c(C(N)=O)nc2cccnc12 (atropisomer, axis not shown) [Compound 290]
PKMYT1
  IC50: 50 to 500 nM
[1]; 4 hours
  IC50: 50 to 500 nM

## NC(=O)c1nc2c(c(-c3cc(O)cnc3F)c1N)NCCC2 (atropisomer, axis not shown) [Compound 294]
PKMYT1
  IC50: 1000 to 5000 nM
[1]; Homo sapiens, HCC1806, 4 h
  IC50: ≥ 5000 nM

## Cc1c(-c2c(N)c(C(N)=O)cc3nccnc23)ccc(F)c1O (atropisomer, axis not shown) [Compound 295]
PKMYT1
  IC50: < 50 nM
[1]; 4 hours
  IC50: 50 to 500 nM

## NC(=O)c1nc2c(c(-c3cc(O)cnc3F)c1N)NCCC2 (atropisomer, axis not shown) [Compound 296]
PKMYT1
  IC50: ≥ 5000 nM
[1]; 4 hours
  IC50: ≥ 5000 nM

## Cc1ccc2[nH]nc(F)c2c1-c1c(N)c(C(N)=O)cc2nccnc12 (atropisomer, axis not shown) [Compound 299]
PKMYT1
  IC50: ≥ 5000 nM
[1]; 4 hours
  IC50: ≥ 5000 nM

## Cc1ccc2[nH]nc(F)c2c1-c1c(N)c(C(N)=O)cc2nccnc12 (atropisomer, axis not shown) [Compound 300]
PKMYT1
  IC50: 50 to 500 nM
[1]; 4 hours
  IC50: 1000 to 5000 nM

## Cc1ccc(O)c(C)c1-c1c(N)c(C#N)cc2nccnc12 (atropisomer, axis not shown) [Compound 301]
PKMYT1
  IC50: ≥ 5000 nM
[1]; 4 hours
  IC50: ≥ 5000 nM

## Cc1ccc(O)c(C)c1-c1c(N)c(C#N)cc2nccnc12 (atropisomer, axis not shown) [Compound 302]
PKMYT1
  IC50: 1000 to 5000 nM
[1]; 4 hours
  IC50: ≥ 5000 nM

## NC(=O)c1nc2cccnc2c(-c2cccc3[nH]nc(F)c23)c1N (atropisomer, axis not shown) [Compound 304]
PKMYT1
  IC50: ≥ 5000 nM
[1]; 4 hours
  IC50: ≥ 5000 nM

## NC(=O)c1nc2cccnc2c(-c2cccc3[nH]nc(F)c23)c1N (atropisomer, axis not shown) [Compound 305]
PKMYT1
  IC50: 50 to 500 nM
[1]; 4 hours
  IC50: 1000 to 5000 nM

## Cc1c(-c2c(N)c(C(N)=O)cc3nccnc23)ccc(F)c1O (atropisomer, axis not shown) [Compound 307]
PKMYT1
  IC50: 1000 to 5000 nM
[1]; 4 hours
  IC50: ≥ 5000 nM

## Cc1c(-c2c3c(cc4nccnc24)C(=O)NC(C)(C)N3)ccc(F)c1O (atropisomer, axis not shown) [Compound 312]
PKMYT1
  IC50: ≥ 5000 nM
[1]; Homo sapiens, HCC1806, 4 h
  IC50: ≥ 5000 nM

## Cc1c(-c2c3c(cc4nccnc24)C(=O)NC(C)(C)N3)ccc(F)c1O (atropisomer, axis not shown) [Compound 313]
PKMYT1
  IC50: ≥ 5000 nM
[1]; 4 hours
  IC50: ≥ 5000 nM

## COc1ccnc2c(-c3cccc(O)c3C)c(N)c(C(N)=O)cc12 (atropisomer, axis not shown) [Compound 325]
PKMYT1
  IC50: 1000 to 5000 nM
[1]; 4 hours
  IC50: 1000 to 5000 nM

## COc1ccnc2c(-c3cccc(O)c3C)c(N)c(C(N)=O)cc12 (atropisomer, axis not shown) [Compound 327]
PKMYT1
  IC50: < 50 nM
[1]; 4 hours
  IC50: < 50 nM

## CCn1ccc2cc(C(N)=O)c(N)c(-c3cccc(O)c3C)c2c1=O (atropisomer, axis not shown) [Compound 328]
PKMYT1
  IC50: ≥ 5000 nM
[1]; 4 hours
  IC50: ≥ 5000 nM

## CCn1ccc2cc(C(N)=O)c(N)c(-c3cccc(O)c3C)c2c1=O (atropisomer, axis not shown) [Compound 329]
PKMYT1
  IC50: < 50 nM
[1]; 4 hours
  IC50: 50 to 500 nM

## Cc1c(O)cccc1-c1c(N)c(C(N)=O)cc2ccn(C)c(=O)c12 (atropisomer, axis not shown) [Compound 336]
PKMYT1
  IC50: < 50 nM
[1]; 4 hours
  IC50: 50 to 500 nM

## Cc1c(O)cccc1-c1c(N)c(C(N)=O)cc2ccn(C)c(=O)c12 (atropisomer, axis not shown) [Compound 337]
PKMYT1
  IC50: 500 to 1000 nM
[1]; 4 hours
  IC50: 1000 to 5000 nM

## Cc1ccc(O)c(C)c1-c1c(N)c(C(N)=O)nc2ccc(F)cc12 (atropisomer, axis not shown; (M)) [Compound 23, (M)-3-Amino-6-fluoro-4-(3-hydroxy-2,6-dimethylphenyl) quinoline-2-carboxamide]
PKMYT1
  IC50: 50 to 500 nM
[1]; 4 hours
  IC50: 1000 to 5000 nM

## Cc1ccc(O)c(C)c1-c1c(N)c(C(N)=O)nc2ccccc12 (atropisomer, axis not shown; (M)) [Compound 44, (M)-3-Amino-4-(3-hydroxy-2,6-dimethylphenyl)quinoline-2-carboxamide]
PKMYT1
  IC50: 50 to 500 nM
[1]; 4 hours
  IC50: 1000 to 5000 nM

## Cc1c(O)cccc1-c1c(N)c(C(N)=O)cc2ncccc12 (atropisomer, axis not shown; (M)) [Compound 68, (M)-6-Amino-5-(3-hydroxy-2-methylphenyl)quinoline-7-carboxamide]
PKMYT1
  IC50: 50 to 500 nM
[1]; 4 hours
  IC50: 500 to 1000 nM

## Cc1c(O)cccc1-c1c(N)c(C(N)=O)cc2nc(C(F)(F)F)cnc12 (atropisomer, axis not shown; (M)) [Compound 103, (M)-7-Amino-8-(3-hydroxy-2-methylphenyl)-3-(trifluoromethyl)quinoxaline-6-carboxamide]
PKMYT1
  IC50: 1000 to 5000 nM
[1]; 4 hours
  IC50: ≥ 5000 nM

## Cc1ccc(O)cc1-c1c(N)c(C(N)=O)cc2nccnc12 (atropisomer, axis not shown; (M)) [Compound 116, (M)-7-Amino-8-(5-hydroxy-2-methylphenyl)quinoxaline-6-carboxamide]
PKMYT1
  IC50: 50 to 500 nM
[1]; 4 hours
  IC50: 500 to 1000 nM

## Cc1ccc(O)c(C)c1-c1c(N)c(C(N)=O)nc2ccc(F)cc12 (atropisomer, axis not shown; (P)) [Compound 24, (P)-3-amino-6-fluoro-4-(3-hydroxy-2,6-dimethylphenyl) quinoline-2-carboxamide]
PKMYT1
  IC50: 1000 to 5000 nM
[1]; 4 hours
  IC50: ≥ 5000 nM
